Results published in patent publication US4333930A, “Orthoarylideneaminophenethylamines and pharmaceutical compositions” (priority 1980, dated 1982).
Where two headings read alike, the source gives them in different places.

Experiments:
[1] = system: stereotype induced by apomorphine; test: Antagonism of the stereotype induced by apomorphine, Table 4; assay type: in vivo; conditions: for % of activity vis-a-vis the stereotype induced by apomorphine: oral; for antagonism vis-a-vis the stereotype with apomorphine: in words
Source text: (§1) The psychotropic profile of the present invention products has been characterized with the animals in numerous tests some of whose results are shown hereinafter. The products of the invention were always administered orally in 6% gum base.
% of activity vis-a-vis the stereotype
induced by apomorphine as a function of the
administered dose expressed in mg/kg

[2] = system: phenylbenzoquinone (PBQ); test: Analgesic activity using phenylbenzoquinone (PBQ) as noxious agent, Table 2; assay type: in vivo, male Swiss mouse; conditions: for inhibition in vivo at 100 mg/kg / inhibition in vivo at 200 mg/kg / inhibition in vivo at 50 mg/kg: Mus musculus; for inhibition in vivo at 100 mg/kg: read-out: % of analgesic activity, 100 mg/kg, male Swiss mouse, PBQ
Protocol: The analgesic activity was determined with the male Swiss mouse using phenylbenzoquinone (PBQ) (a variation of the method of Siegmund et al, Proc. Soc. Exp. Med., […], 95, 729-31) as the noxious agent. Twenty-eightminutes after having administered the test products in a suspension in a 6% gum base, the PBQ solution was injected. The mice were then observed ca. 5 mn. for the next five minutes.
% of analgesic activity as a function of
the dose expressed in mg/kg

[3] = system: ptosis induced by reserpine; test: Antagonism of ptosis induced by reserpine, Table 6; assay type: in vivo; conditions: read-out: % of inhibition of ptosis induced by reserpine
Source text: as §1
(§2) Certain tests made it possible to show antidepressive activities. These are tests of antagonism to the effects of reserpine, oxotremorine (according to Everett G. M. et al, Science, 1956, 124, 79 and Levy J. et al, Therapie 1965, 20, 265) and to despair (according to Porsolt P. D. et al, Eur. J. Pharmacol., 1978, 47, 379-91).
% of inhibition of ptosis induced by reserpine
as a function of the dose administered orally

[4] = system: number of escapes the animal made in 5 minutes; test: Escape test, Table 3; assay type: in vivo, mouse; conditions: 5 min, read-out: % of activity (variation of the number of escapes)
Source text: The products of the invention were always administered orally in 6% gum base.
The notation NS signifies that the difference between the results noted for the product and the results noted for the excipient alone is not significant at the threshold 0.05 according to the Student t Test.

[5] = Oral toxicity (mortality) in the mouse, Table 1; assay type: in vivo; conditions: mouse, in vivo, po, Swiss mice, 14 days
Protocol: (§3) The mortality percentages caused by the products of the present invention administered orally to Swiss mice are shown in Table 1. The animals, free of specific pathological organism were housed in an air conditioned room from 24 to 48 hours before the start of the experiments. They were divided up into lots of 5 males and 5 females. With the animals unfed for 24 hours, the substances were administered intragastrically in a base of 6% gum arabic in a volume equal to 0.1 ml for 10 g of animal weight. The mortality was recorded at 14 days.
(§4) % of mortality as a function of the dose

[6] = system: trembling induced by oxotremorine; test: Antagonism of trembling induced by oxotremorine, Table 7; assay type: in vivo; conditions: read-out: % of inhibition of trembling induced by oxotremorine
Source text: as §1, §2
% of inhibition of trembling induced by
oxotremorine as a function of the dose
(§5) administered expressed in mg/kg

[7] = system: Swiss mice; test: Oral toxicity (mortality) in the mouse, Table 1; assay type: in vivo; conditions: 14 days, 20160 min
Protocol: as §3, §4

[8] = system: salivation induced by pilocarpine; test: Inhibition of salivation induced by pilocarpine (anticholinergic activity), Table 9; assay type: in vivo; conditions: oral
Source text: as §1
Certain products manifest an anticholinergic activity evidenced in the inhibition test of salivation induced by pilocarpine (Table 9).
% of inhibition of salivation induced by
pilocarpine as a function of the dose
as §5

[9] = system: number of displacements of the animal; test: Four plates test (anxiolytic activity), Table 5; assay type: in vivo; conditions: oral, mouse
Source text: as §1
A certain number of products manifest an anxiolytic activity evidenced in the test with the four plates with the mouse (Table 5).
% of increase in the number of displacements of the
animal as a function of the dose expressed in mg/kg

[10] = system: despair; test: Test of despair (Porsolt), Table 8; assay type: in vivo; conditions: oral
Source text: as §1, §2
Test of despair: % of antagonism as a function
of the dose administered orally and expressed

[11] = read-out: % of analgesic activity, 200 mg/kg, male Swiss mouse, PBQ
[12] = 100 mg/kg, male Swiss mouse, PBQ

## COc1ccc(C=Nc2cc3c(cc2CCN(C)C)OCO3)cc1 [COR 01 210]
[1]; 75 mg/kg
  % of activity vis-a-vis the stereotype induced by apomorphine: -33%
[1]; 150 mg/kg
  % of activity vis-a-vis the stereotype induced by apomorphine: -33%
[1]
  antagonism vis-a-vis the stereotype with apomorphine: manifest an antagonism
[2]
  inhibition in vivo at 100 mg/kg: 27%
[2]; [11]
  inhibition in vivo at 200 mg/kg: 33%
[3]; po
  change in vivo at 50 mg/kg: -21%
  change in vivo at 100 mg/kg: -38%
[4]; Mus musculus, po
  change in vivo at 100 mg/kg: -20%
  change in vivo at 150 mg/kg: -26%
  change in vivo at 200 mg/kg: -72%
[5]; 750 mg/kg
  mortality at 336 h: 0%
[5]; 1000 mg/kg
  mortality at 336 h: 10%
[5]; 2000 mg/kg
  mortality at 336 h: 20%
[6]; po
  change in vivo at 50 mg/kg: -50%
  change in vivo at 75 mg/kg: -40%
  change in vivo at 100 mg/kg: -50%
  change in vivo at 150 mg/kg: -30%
  change in vivo at 200 mg/kg: -50%

## CN(C)CCc1cc2c(cc1N=Cc1cccs1)OCO2 [COR 01 151]
[2]; 50 mg/kg, male Swiss mouse, PBQ
  % of analgesic activity: 41%
[2]
  inhibition in vivo at 100 mg/kg: 79%
[4]; Mus musculus, po
  change in vivo at 100 mg/kg: -41%
[5]; 750 mg/kg
  mortality at 336 h: 60%
[7]; 150 mg/kg
  % of mortality: 0%
[7]; 250 mg/kg
  % of mortality: 10%
[7]; 500 mg/kg
  % of mortality: 40%

## Cc1ccc(C=Nc2cc3c(cc2CCN(C)C)OCO3)cc1 [COR 01 206]
[1]; 50 mg/kg
  % of activity vis-a-vis the stereotype induced by apomorphine: -53%
[1]; 100 mg/kg
  % of activity vis-a-vis the stereotype induced by apomorphine: -71%
[1]; 200 mg/kg
  % of activity vis-a-vis the stereotype induced by apomorphine: -22%
[1]
  antagonism vis-a-vis the stereotype with apomorphine: manifest an antagonism
[4]; Mus musculus, po
  change in vivo at 25 mg/kg: -18%
  change in vivo at 50 mg/kg: -28%
  change in vivo at 100 mg/kg: -63%
[5]; 1500 mg/kg
  mortality at 336 h: 0%
[5]; 2000 mg/kg
  mortality at 336 h: 50%

## CN(C)CCc1cc2c(cc1N=Cc1ccccc1)OCO2 [COR 01 209]
[1]; 50 mg/kg
  % of activity vis-a-vis the stereotype induced by apomorphine: -54%
[1]; 100 mg/kg
  % of activity vis-a-vis the stereotype induced by apomorphine: -51%
[1]; 200 mg/kg
  % of activity vis-a-vis the stereotype induced by apomorphine: -42%
[1]
  antagonism vis-a-vis the stereotype with apomorphine: manifest an antagonism
[2]; [11]
  inhibition in vivo at 200 mg/kg: 17%
[3]; po
  change in vivo at 200 mg/kg: -45%
[4]; Mus musculus, po
  change in vivo at 5 mg/kg: -28%
  change in vivo at 25 mg/kg: -38%
  change in vivo at 50 mg/kg: -32%
  change in vivo at 100 mg/kg: -37%
  change in vivo at 200 mg/kg: -20%
[5]; 1000 mg/kg
  mortality at 336 h: 0%
[5]; 1500 mg/kg
  mortality at 336 h: 40%
[5]; 2000 mg/kg
  mortality at 336 h: 60%
[6]; po
  change in vivo at 50 mg/kg: -60%
  change in vivo at 75 mg/kg: -60%
  change in vivo at 100 mg/kg: -55%
  change in vivo at 150 mg/kg: -60%
  change in vivo at 200 mg/kg: -30%

## C(=Nc1cc2c(cc1CCN1CCCCC1)OCO2)c1cccnc1 [COR 01 174]
[2]; [12]
  % of analgesic activity: 48%
[2]; 200 mg/kg, male Swiss mouse, PBQ, read-out: % of analgesic activity
  inhibition in vivo at 200 mg/kg: 18%
[5]; 2000 mg/kg
  mortality at 336 h: 50%
[7]; 500 mg/kg
  % of mortality: 0%
[7]; 1000 mg/kg
  % of mortality: 10%

## C(=Nc1cc2c(cc1CCN1CCCC1)OCO2)c1cccnc1 [COR 01 173]
[8]; 75 mg/kg
  % of inhibition of salivation induced by pilocarpine: -39%
[8]; 100 mg/kg
  % of inhibition of salivation induced by pilocarpine: -48%
[8]; 200 mg/kg
  % of inhibition of salivation induced by pilocarpine: -76%
[3]; 50 mg/kg, oral
  change in vivo at 50 mg/kg: -12%
[3]; 75 mg/kg, oral
  change in vivo at 75 mg/kg: -21%
[3]; 100 mg/kg, oral
  change in vivo at 100 mg/kg: -23%
[9]; 10 mg/kg
  % of increase in the number of displacements of the animal: +30%
[9]; 20 mg/kg
  % of increase in the number of displacements of the animal: +47%
[9]; 50 mg/kg
  % of increase in the number of displacements of the animal: +60%
[9]; 75 mg/kg
  % of increase in the number of displacements of the animal: +82%
[10]; 50 mg/kg
  Test of despair: % of antagonism: -18%
[10]; 100 mg/kg
  Test of despair: % of antagonism: -41%
[10]; 200 mg/kg
  Test of despair: % of antagonism: -53%
[4]; 5 mg/kg, oral, mouse, 5 minutes
  change in vivo at 5 mg/kg: -33%
[4]; 25 mg/kg, oral, mouse, 5 minutes
  change in vivo at 25 mg/kg: -13%
[4]; 50 mg/kg, oral, mouse, 5 minutes
  change in vivo at 50 mg/kg: -29%
[4]; 75 mg/kg, oral, mouse, 5 minutes
  change in vivo at 75 mg/kg: -26%
[4]; 100 mg/kg, oral, mouse, 5 minutes
  change in vivo at 100 mg/kg: -50%
[4]; 150 mg/kg, oral, mouse, 5 minutes
  change in vivo at 150 mg/kg: -55%
[4]; 200 mg/kg, oral, mouse, 5 minutes
  change in vivo at 200 mg/kg: -90%
[5]; 500 mg/kg
  mortality at 336 h: 0%
[5]; 1000 mg/kg
  mortality at 336 h: 30%
[6]; oral
  change in vivo at 25 mg/kg: -20%
[6]; 50 mg/kg, oral
  change in vivo at 50 mg/kg: -20%
[6]; 75 mg/kg, oral
  change in vivo at 75 mg/kg: -40%
[6]; 100 mg/kg, oral
  change in vivo at 100 mg/kg: -60%
[6]; 150 mg/kg, oral
  change in vivo at 150 mg/kg: -70%

## CN(C)CCc1cc2c(cc1N=Cc1ccc[n+]([O-])c1)OCO2 [COR 01 203]
[2]; read-out: % of analgesic activity, 50 mg/kg, male Swiss mouse, PBQ
  inhibition in vivo at 50 mg/kg: 0%
[2]
  inhibition in vivo at 100 mg/kg: 36%
[2]; [11]
  inhibition in vivo at 200 mg/kg: 47%
[8]; 50 mg/kg
  % of inhibition of salivation induced by pilocarpine: -32%
[8]; 200 mg/kg
  % of inhibition of salivation induced by pilocarpine: -30%
[3]; po
  change in vivo at 100 mg/kg: -33%
  change in vivo at 200 mg/kg: -27%
[5]; 1000 mg/kg
  mortality at 336 h: 0%
[5]; 1500 mg/kg
  mortality at 336 h: 10%
[5]; 2000 mg/kg
  mortality at 336 h: 40%
[6]; po
  change in vivo at 50 mg/kg: -70%
  change in vivo at 100 mg/kg: -50%
  change in vivo at 200 mg/kg: -20%

## C(=Nc1cc2c(cc1CCN1CCCCC1)OCO2)c1cccnc1 [COR 01 202]
[1]; 25 mg/kg
  % of activity vis-a-vis the stereotype induced by apomorphine: -35%
[1]; 50 mg/kg
  % of activity vis-a-vis the stereotype induced by apomorphine: -32%
[1]; 75 mg/kg
  % of activity vis-a-vis the stereotype induced by apomorphine: -29%
[1]; 200 mg/kg
  % of activity vis-a-vis the stereotype induced by apomorphine: -20%
[1]
  antagonism vis-a-vis the stereotype with apomorphine: manifest an antagonism
[2]; [12]
  % of analgesic activity: 0%
[2]; 200 mg/kg, male Swiss mouse, PBQ
  % of analgesic activity: 33%
[2]; 50 mg/kg, male Swiss mouse, PBQ, read-out: % of analgesic activity
  inhibition in vivo at 50 mg/kg: 2%
[9]; 25 mg/kg
  % of increase in the number of displacements of the animal: +48%
[9]; 50 mg/kg
  % of increase in the number of displacements of the animal: +96%
[10]; 50 mg/kg
  Test of despair: % of antagonism: -49%
[10]; 100 mg/kg
  Test of despair: % of antagonism: -67%
[5]; 750 mg/kg
  mortality at 336 h: 30%
[7]; 500 mg/kg
  % of mortality: 10%
[7]; 1000 mg/kg
  % of mortality: 60%
[6]; oral
  change in vivo at 25 mg/kg: 0%
[6]; 50 mg/kg, oral
  change in vivo at 50 mg/kg: -67%
[6]; 75 mg/kg, oral
  change in vivo at 75 mg/kg: -44%
